Experiment: Short-term stability in spiked pooled human plasma (bench-top, 4 °C, 56 °C)

Row | SMILES | concentrations in short-term stability investigations (24 h, room temperature, with or without light) | Short-time stability (1h, 56°C) Accuracy [%] (validation standard 2xLLOV) | Short-time stability (24h, 4°C, without daylight) Accuracy [%] (validation standard 2xLLOV) | Short-time stability (24h, RT, with daylight) Accuracy [%] (validation standard 2xLLOV) | Short-time stability (24h, RT, without daylight) Accuracy [%] (validation standard 2xLLOV) | Short-time stability (1h, 56°C) Accuracy [%] (validation standard LLOV) | Short-time stability (24h, 4°C, without daylight) Accuracy [%] (validation standard LLOV) | Short-time stability (24h, RT, with daylight) Accuracy [%] (validation standard LLOV) | Short-time stability (24h, RT, without daylight) Accuracy [%] (validation standard LLOV) | Short-time stability (1h, 56°C) Accuracy [%] (validation standard MOV) | Short-time stability (24h, 4°C, without daylight) Accuracy [%] (validation standard MOV) | Short-time stability (24h, RT, with daylight) Accuracy [%] (validation standard MOV) | Short-time stability (24h, RT, without daylight) Accuracy [%] (validation standard MOV) | Short-time stability (1h, 56°C) Accuracy [%] (validation standard ULOV) | Short-time stability (24h, 4°C, without daylight) Accuracy [%] (validation standard ULOV) | Short-time stability (24h, RT, with daylight) Accuracy [%] (validation standard ULOV) | Short-time stability (24h, RT, without daylight) Accuracy [%] (validation standard ULOV)
1 | C=CC(=O)Nc1cc(Nc2nccc(-c3cn(C)c4ccccc34)n2)c(OC)cc1N(C)CCN(C)C [Osimertinib] | 60.5–75.7% | 29.9 | 95.8 | 61.4 | 61.7 | 28.7 | 85.8 | 62.0 | 60.5 | 30.1 | 96.3 | 75.7 | 72.0 | 26.0 | 86.7 | 67.4 | 63.9
2 | COc1cc2ncnc(Nc3ccc(F)c(Cl)c3)c2cc1OCCCN1CCOCC1 [Gefitinib] |  | 46.0 | 97.4 | 91.9 | 92.1 | 33.3 | 90.9 | 83.0 | 83.7 | 49.1 | 103.4 | 96.2 | 93.8 | 42.1 | 94.9 | 88.3 | 87.7
3 | Cc1ccc(C(=O)Nc2ccc(CN3CCN(C)CC3)c(C(F)(F)F)c2)cc1C#Cc1cnc2cccnn12 [Ponatinib] |  | 48.3 | 96.6 | 98.7 | 98.1 |  |  |  |  | 50.8 | 100.1 | 99.8 | 102.6 | 43.1 | 93.3 | 97.8 | 98.9
4 | CC1(C)CCC(CN2CCN(c3ccc(C(=O)NS(=O)(=O)c4ccc(NCC5CCOCC5)c([N+](=O)[O-])c4)c(Oc4cnc5[nH]ccc5c4)c3)CC2)=C(c2ccc(Cl)cc2)C1 [Venetoclax] |  | 34.5 | 102.9 | 98.6 | 95.7 |  | 88.8 | 112.5 | 102.7 | 26.4 | 100.5 | 96.8 | 98.0 | 22.4 | 99.7 | 94.1 | 92.7

— publication PMC8699473, “An Easily Expandable Multi-Drug LC-MS Assay for the Simultaneous Quantification of 57 Oral Antitumor Drugs in Human Plasma” (Cancers, 2021)
